# Measurements published in patent US10548894B2, “Combination therapy” (Array BioPharma Inc., priority 2013, dated 2020).
# Key:
# Assay in all cases: Microscopy imaging assay (viable nuclei count), 72 h
# Format in all cases: cell-based
# [1] = tested on: A-375 cells expressing truncated p61-BRAFV600E; details: Homo sapiens, A-375 p61 BRafV600E, single agent
# Method: (§1) Compound stocks are prepared in DMSO at a final concentration of 10 mM.
# (§2) A-375 and WM-266-4 cells were purchased from American Type Culture Collection (ATCC). The A-375 cells were cultured in DMEM medium (ATCC) and the WM-266-4 cells were cultured in EMEM medium (ATCC) both supplemented with 10% fetal bovine serum (Gibco) and incubated at 37° C./5% CO2. The cell lines engineered to express commonly occurring alleles indicative of resistance were acquired from Novartis-Emeryville. These resistant models include, A-375 cells expressing mutant MEK1P124L, truncated p61-BRAFV600E, or mutant NRASQ61K, and WM-266-4 cells expressing mutant MEK1C121S, truncated p61-BRAFV600E, or mutant NRASQ61K. These cells were cultured in the appropriate parental medium with selection marker G418 and in the presence of 5 uM LFE158 (MEK mutants) or LIH720 (truncated p61-BRAFV600E).
# (§3) For screening, cells were seeded in 80 ul of medium in 384-well plates (Thermo Scientific, cat#4332) at 500 (A-375) or 750 (WM-266-4) cell densities per well using a MultiDrop Combi (Thermo-Fisher) with an 8-channel standard cassette. To promote an even distribution of cells across the entire well, cells were briefly centrifuged at 1000 RPM and incubated at room temperature 30 minutes. All plates were incubated at 37° C., 5% CO2 for 24 h prior to compound addition. Compound stock was freshly prepared in the appropriate culture medium, and added using a PAA robot equipped with a 200n1 pin tool. In a minimum of three replicate wells, single agent and combination effects after 72 hours, were assessed by both quantification of cellular ATP levels via Cell Titer Glo (Promega) according to the manufacturer's protocol and by microscopy imaging. […]
# (§4) An automated image analysis pipeline was established using custom-made scripts in the open-source, statistical programming language R, and functions of the BioConductor package EBImage. The goal was to quantify the number of viable nuclei (cells) per well as an approximation for cell viability. […]
# [2] = tested on: WM-266-4 cells expressing mutant NRASQ61K; details: Homo sapiens, WM-266-4 NRASQ61K, single agent
# Method: as §1, §2, §3, §4
# [3] = tested on: WM-266-4 cells expressing truncated p61-BRAFV600E; details: Homo sapiens, WM-266-4 p61 BRafV600E, single agent
# Method: as §1, §2, §3, §4
# [4] = tested on: A-375 cells expressing mutant MEK1P124L; details: Homo sapiens, A-375 MEK1P124L, single agent
# Method: (§5) Compound stocks are prepared in DMSO at a final concentration of 10 mM. Working stocks are serially diluted in the appropriate cell culture medium in 3-fold increments to achieve final assay concentrations ranging from 2.7 μM to 1.2 nM.
# as §2
# (§6) For screening, cells were seeded in 80 ul of medium in 384-well plates (Thermo Scientific, cat#4332) at 500 (A-375) or 750 (WM-266-4) cell densities per well using a MultiDrop Combi (Thermo-Fisher) with an 8-channel standard cassette. To promote an even distribution of cells across the entire well, cells were briefly centrifuged at 1000 RPM and incubated at room temperature 30 minutes. All plates were incubated at 37° C., 5% CO2 for 24 h prior to compound addition. Compound stock was freshly prepared in the appropriate culture medium, and added using a PAA robot equipped with a 200n1 pin tool. In a minimum of three replicate wells, single agent and combination effects after 72 hours, were assessed by both quantification of cellular ATP levels via Cell Titer Glo (Promega) according to the manufacturer's protocol and by microscopy imaging. For imaging, cells were fixed to the plates and permeabilized with a solution of 10% PFA, 0.3% TX-100 in PBS via a WellMate dispenser with controlled dispensing speeds. Cell nuclei were stained with Hoechst 33342 (H3570, Invitrogen), and all necessary washing steps were performed by a BioTek washer.
# (§7) An automated image analysis pipeline was established using custom-made scripts in the open-source, statistical programming language R, and functions of the BioConductor package EBImage. The goal was to quantify the number of viable nuclei (cells) per well as an approximation for cell viability. The pipeline was comprised of seven steps: (I.) smoothing of the image to reduce the number of intensity peaks, (II.) application of a thresholding function to separate the foreground (signal) from the background (noise), (III.) identification of local maxima in the foreground that serve as seeds for the nuclei, (IV.) filtering of local maxima in close proximity, (V.) propagation of the nuclei from remaining local maxima, (VI.) and extraction of object features from the propagated nuclei (numbers of nuclei, size features and intensity features). As a last step (VII.), to exclude debris (e.g. fragmented nuclei) from counting, objects identified in DMSO- and Staurosporin-treated wells were used to obtain feature distributions for viable and fragmented nuclei, respectively. These were used to set cut-offs differentiating between viable and fragmented nuclei. The number of fragmented nuclei was subtracted from the total number of identified objects and the result was reported as final count for that well.
# (§8) Data comprised triplicate measurements for each treatment (compound) condition, 42 replicates of DMSO-treated wells, and duplicates of Staurosporin-treated wells. The data was normalized to the median of the DMSO measurements and summarized by calculating the median of the triplicates. Data was imported into Chalice to calculate compound synergies.
# [5] = tested on: A-375 cells expressing mutant NRASQ61K; details: Homo sapiens, A-375 NRASQ61K, single agent
# Method: as §5, §2, §6, §7, §8
# [6] = tested on: A-375 cells; details: Homo sapiens, A-375 parent, single agent
# Method: as §5, §2, §6, §7, §8
# [7] = tested on: WM-266-4 cells expressing mutant MEK1C121S; details: Homo sapiens, WM-266-4 MEK1C121S, single agent
# Method: as §5, §2, §6, §7, §8
# [8] = tested on: WM-266-4 cells; details: Homo sapiens, WM-266-4 parent, single agent
# Method: as §5, §2, §6, §7, §8
smiles,measurement,setting,value
COC(=O)N[C@@H](C)CNc1nccc(-c2cn(C(C)C)nc2-c2cc(Cl)cc(NS(C)(=O)=O)c2F)n1 [Compound of Formula (I)],IC50,[1],849 nM
same,IC50,[2],868 nM
same,IC50,[3],933 nM
same,IC50,[4],300 nM
same,IC50,[5],133 nM
same,IC50,[6],4 nM
same,IC50,[7],58 nM
same,IC50,[8],3 nM
